Assay results published in US12635715B2, “Isofucosterol and combinations of isofucosterol and a multiplicity of sterols as a nutrient for animals” (APIX BIOSCIENCES, priority 2022, dated 2026).

System: honeybee colonies (Apidea nucs)
Assay: Brood production in Apidea nucs fed isofucosterol diets (Example 3)
Assay type: in vivo, honeybees
Details: as the concentration of isofucosterol in the diet increased; N>3 colonies/treatment
Experimental: Honeybees: Fully functional insulated styrofoam Apidea nucs comprised 5 mini frames populated with adult workers and 1 mated laying queen bee were populated with 300-400 ml of young adult workers (˜N<1.000 bees of mixed ages).
Each treatment was tested with 3-6 colonies; each colony was fed with a 60-100 g patty (solid diet) on the top feeder fitted with a mesh floor. Diet was fed on the first day and again on day 6; the quantity consumed was measured on day 6 and day 15. If no larvae or eggs/queen are observed by day 6 then the experiment is terminated. The number of capped brood cells was counted on day 15. The number of bee seams was estimated during each inspection. Sugar syrup (34%) and water was provided in feeders inside the tent to prevent carbohydrate starvation and to stimulate foraging activity.
In Example 3, bees were fed with a diet containing 10-18% protein, 6% fat, 1% vitamins/minerals and >75% carbohydrates.
As the concentration of isofucosterol increased, the amount of brood produced in each colony increased (N>3 colonies/treatment). The pupae, and the number of new adults was counted over the entire 10-week period.

**Q.** Which “amount of brood produced in each colony” value does the source give for `C/C=C(/CC[C@@H](C)[C@H]1CC[C@H]2[C@@H]3CC=C4C[C@@H](O)CC[C@]4(C)[C@H]3CC[C@]12C)C(C)C` [isofucosterol, Isofucosterol] here?
**A.** increased
